Here are results for three molecules from patent publication US20250277785A1, “MICROFLUIDIC DEVICES FOR EVALUATING FIBROSIS IN MATERIAL IMPLANTATION AND CANCER” (THE UNITED STATES OF AMERICA AS REPRESENTED BY THE …, priority 2022, published 2025).

The test system of one assay is L929 cells. Nature of the assay: Scar-in-a-jar immunostaining, collagen deposition by fibroblasts in 2D. In kind it is cell-based, mouse. Conditions: media containing L-ascorbic acid, FICOLL and TGF-β1. On the procedure: (§1) Inducing collagen deposition by fibroblasts in a two-dimensional model was studied. To determine whether L929 fibroblasts would deposit collagen in response to stimuli, well plate experiments were conducted following a protocol described in Good et al., “A High Content, Phenotypic ‘Scar-In-A-Jar’ Assay for Rapid Quantification of Collagen Fibrillogenesis Using Disease-Derived Pulmonary Fibroblasts,” BMC Biomedical Engineering, 1:14, 1-10 (2019), which is incorporated by reference herein in its entirety. Immunostaining experiments were carried out on L929 cells and primary mouse skin fibroblasts exposed to media containing L-ascorbic acid, FICOLL®, and TGF-β1. […] These findings indicate the relevance of and effects of cell type and L-ascorbic acid type on in vitro extracellular matrix deposition.

In assay [1] the test system is primary mouse skin fibroblasts. Described as above. In kind it is cell-based. Conditions: media containing L-ascorbic acid, FICOLL and TGF-β1. Here is the method: as §1
The test system of the next assay is RAW264.7 cells. Nature of the assay: F-actin visualization of macrophage morphology. The format is cell-based, mouse. Conditions: increasing concentrations of LPS. On the procedure: (§2) L929 mouse fibroblasts and RAW264.7 mouse macrophages were fluorescently labelled with red and green […]® (Thermo Fisher Scientific) dyes respectively. Extensive studies were conducted to optimize cell seeding density, culture times, and biomaterial implantation. Cells were co-cultured two-dimensionally or within microfluidic devices described in Example 1, after which cancer spheroids or alginate-based biomaterials were implanted within the two-dimensional cultures and within the microfluidic devices. Immunostaining, fluorescence microscopy, Griess assays, and histological analysis were used to evaluate immune cell activation and fibrosis formation in response to the spheroids and implants. Griess Assays were performed on media collected from cultured cells. […] Co-culture of RAW264.7 and L929 cells were visualized with […]® dyes. […] F-actin visualization for RAW264.7 cells treated with LPS was performed. […] Co-culture of L929 and RAW264.7 cells was performed in the microfluidic device. L929 cells were cultured in 3D within the Matrigel channel, while macrophages were introduced in 2D from an adjacent channel. After 24 hours of co-culture, the cells were primarily retained within their respective channels.

The subject of a further assay is RAW264.7 macrophages. Nature of the assay: Griess assay of nitrite production in media of cultured macrophages. The format is cell-based, mouse. Conditions: LPS stimulation of macrophages, 2D culture. On the procedure: as §2
The test system of assay [2] is L929 cells and primary mouse skin fibroblasts. Put plainly: Scar-in-a-jar immunostaining, effect of L-ascorbic acid type. Conditions: cell type not specified for this statement. In kind it is cell-based. On the procedure:
as §1

The next assay relates to WI-38 human lung cells. Nature of the assay: Picrosirius red staining of decellularized extracellular matrix. The format is cell-based. Conditions: Permanox plastic 4-chamber slides, 250,000 cells/chamber, with vs without L-ascorbic acid. Here is the method: One method that can be used for visualization and quantification of collagen deposition in the microfluidic device is picrosirius red staining. […] Cells were grown in chambers with or without a fibronectin coating and with or without L-asorbic acid. […] In the absence of a fibronectin coating, no visible collagen deposition remained after 14-15 minutes of decellularization. […] Cells appear to deposit collagen fibers that are retained, even in the absence of a fibronectin coating, with a short decellularization time of five minutes. […]

Turning to “TGF-β1: transforming growth factor beta 1, stimulus for collagen deposition”, in the assay with L929 cells, the “Collagen I deposition in response to TGF-β1 treatment” value is given as “did not have increased Collagen I deposition” and the α-SMA expression entry is reported as “no α-SMA expression”. Also, in assay [1], the “Collagen I deposition in response to TGF-β1 treatment” value is given as “Some increases” and the “α-SMA expression in response to TGF-β1 treatment” value is listed as “Some increases”.
Take lipopolysaccharide [LPS]: the “morphological changes (F-actin visualization)” value in the assay with RAW264.7 cells is “Morphological changes were observed”. In addition, the “macrophage activation, as indicated by nitrite production” value in the assay on RAW264.7 macrophages is reported as “led to macrophage activation”.
As for `O=C1O[C@H]([C@@H](O)CO)C(O)=C1O` [L-ascorbic acid], the “effect of the type of L-ascorbic acid on Collagen I deposition” value in assay [2] was “had some effects”. Further, in the assay with WI-38 human lung cells, the “collagen deposition (picrosirius red)” value was “increase in collagen deposition”.
